The conditions of data set [1]: 1 and derivatives thereof; target not determined; cited from earlier work.
Data set [2] addresses T1, glutamate racemase from Bacillus subtilis (RacE) (Bacillus subtilis, UniProt P94556). The format is biochemical.
The conditions of data set [3]: 1 and derivatives thereof; cited from earlier work.
Data set [4] deals with T1, glutamate racemase from Bacillus subtilis (RacE). To be noted: BsGR; presented previously; cited from earlier work.

SMILES strings stand for the structures. Like-named read-outs stand apart in the source and are kept apart here.

T1 sequence (P94556 whole entry): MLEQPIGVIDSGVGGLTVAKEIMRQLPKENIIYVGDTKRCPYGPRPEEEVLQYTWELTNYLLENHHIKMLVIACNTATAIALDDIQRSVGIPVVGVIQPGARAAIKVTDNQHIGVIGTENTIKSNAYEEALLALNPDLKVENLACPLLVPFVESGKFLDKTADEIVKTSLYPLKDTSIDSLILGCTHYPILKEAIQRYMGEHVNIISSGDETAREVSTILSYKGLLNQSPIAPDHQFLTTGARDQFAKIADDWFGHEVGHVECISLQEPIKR

On to `O=S(=O)(O)c1nc2ccccc2[nH]1` [Compound 1, benzimidazole-2-sulfonic acid], for which the “antibacterial and antifungal activity” value in data set [1] was “antibacterial and antifungal activity”. The same compound showed a ligand efficiency in data set [2] of 0.53 kcal/mol/heavy atom. Besides, the mode of inhibition entry in data set [2] (verified by global fitting to varying inhibition models) is on record as “competitive inhibitor”. In data set [3], the toxicity result is on record as “low toxicity”.
Turning to `O=c1c(O)c(O)c(=O)c1=O` [Compound 2, Croconic acid], the mode of inhibition result in data set [4] is reported as “competitive inhibitors”.
On to `O=S(=O)(O)c1ccc(O)c(S(=O)(=O)O)c1` [Compound 3, 4-Hydroxy-1,3-benzenedisulfonic acid], for which, in data set [4], the mode of inhibition entry is on record as “competitive inhibitors”.
Turning to `O=C(O)c1cccc(C(=O)O)n1` [Compound 9, dipicolinic acid], the mode of inhibition entry in data set [4] is “competitive inhibitors”.

The values above are taken from paper PMC3129543 (Molecular informatics, 2011).
